Data published in patent publication US20240308960A1 (Sumitomo Pharma Co., Ltd., priority 2021, published 2024).

Target: T1, Human orexin receptor type 2 (Homo sapiens, UniProt O43614)
T1 sequence (O43614 1-444): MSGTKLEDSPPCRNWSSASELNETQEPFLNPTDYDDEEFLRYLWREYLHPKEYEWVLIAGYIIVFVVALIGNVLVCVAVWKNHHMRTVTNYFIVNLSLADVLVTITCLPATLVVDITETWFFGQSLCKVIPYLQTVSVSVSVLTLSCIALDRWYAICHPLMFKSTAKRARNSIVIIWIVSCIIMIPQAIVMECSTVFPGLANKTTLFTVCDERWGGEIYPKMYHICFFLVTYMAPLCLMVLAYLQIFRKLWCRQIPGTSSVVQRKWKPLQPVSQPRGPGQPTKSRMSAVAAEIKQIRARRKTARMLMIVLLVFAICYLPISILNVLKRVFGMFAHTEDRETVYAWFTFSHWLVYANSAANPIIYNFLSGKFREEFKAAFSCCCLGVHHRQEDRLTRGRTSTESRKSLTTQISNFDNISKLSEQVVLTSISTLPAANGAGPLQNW
Assay: Test Example 1: agonist activity for orexin receptor type 2 (aequorin luminescence, intracellular calcium mobilization)
Settings: compound 10 μm; CHO cells transiently expressing human orexin receptor type 2 and apoaequorin; relative percentage of luminescence for the luminescence (100%) of Orexin A (100 μM)

| Agonist Activity (%) | SMILES |
| --- | --- |
| 155 | CC(C)N1CCN(c2cccc(Cl)c2NC(=O)N2CCC(C)(c3noc(C4CC4(F)F)n3)CC2)CC1 (centres unmarked) [Example 114, N-{2-chloro-6-[4-(propan-2-yl)piperazin-1-yl]phenyl}-4-[5-(2,2-difluorocyclopropyl)-1,2,4-oxadiazol-3-yl]-4-methylpiperidine-1-carboxamide] |
| 36 | Cc1ccc(C2CCN(C(=O)Nc3ccccc3N3CCN(C(C)C)CC3C)CC2)cc1 (racemic) [Example 30, Rac-4-(4-methylphenyl)-N-{2-[2-methyl-4-(propan-2-yl)piperazin-1-yl]phenyl}piperidine-1-carboxamide] |
| 195 | CC(C)N1CCN(c2cccc(F)c2NC(=O)N2CCC(C)(C3CCCC3)CC2)CC1 [Example 91, 4-cyclopentyl-N-{2-fluoro-6-[4-(propan-2-yl)piperazin-1-yl]phenyl}-4-methylpiperidine-1-carboxamide] |
| 196 | CC(C)N1CCC(c2cccc(F)c2NC(=O)N2CCC(C)(c3nc4ccccc4o3)CC2)CC1 [Example 49, 4-(1,3-benzoxazol-2-yl)-N-{2-fluoro-6-[1-(propan-2-yl)piperidin-4-yl]phenyl}-4-methylpiperidine-1-carboxamide] |
| 178 | CC(C)N1CCN(c2cccc(Cl)c2NC(=O)N2CCC(C)(c3noc(C4CC4)c3Cl)CC2)CC1 [Example 103, 4-(4-chloro-5-cyclopropyl-1,2-oxazol-3-yl)-N-{2-chloro-6-[4-(propan-2-yl)piperazin-1-yl]phenyl}-4-methylpiperidine-1-carboxamide] |
| 129 | CC(C)c1ccc(-c2cccc(Cl)c2NC(=O)N2CCC(C)(c3cc(C4CC4)on3)CC2)cn1 [Example 69, N-{2-chloro-6-[6-(propan-2-yl)pyridin-3-yl]phenyl}-4-(5-cyclopropyl-1,2-oxazol-3-yl)-4-methylpiperidine-1-carboxamide] |
| 180 | CC(C)N1CCN(c2cccc(Cl)c2NC(=O)N2CCC(C)(c3noc([C@@H]4C[C@@H]4C)n3)CC2)CC1 (racemic) [Example 104, Rac-N-{2-chloro-6-[4-(propan-2-yl)piperazin-1-yl]phenyl}-4-methyl-4-{5-[(1R,2S)-2-methylcyclopropyl]-1,2,4-oxadiazol-3-yl}piperidine-1-carboxamide] |
| 131 | CC(C)N1CCN(c2cccc(F)c2NC(=O)N2CCC(C)(c3noc(C4CC(F)(F)C4)n3)CC2)CC1 [Example 75, 4-[5-(3,3-difluorocyclobutyl)-1,2,4-oxadiazol-3-yl]-N-{2-fluoro-6-[4-(propan-2-yl)piperazin-1-yl]phenyl}-4-methylpiperidine-1-carboxamide] |
| 47 | Cc1ccccc1C1CCN(C(=O)Nc2c(F)cccc2N2CCN(C(C)C)CC2)CC1 [Example 37, N-{2-fluoro-6-[4-(propan-2-yl)piperazin-1-yl]phenyl}-4-(2-methylphenyl)piperidine-1-carboxamide] |
| 130 | Cc1ccc(C2CCN(C(=O)Nc3ccccc3N3CCN(C(C)C)CC3)CC2)cc1 [Example 121] |
| 142 | CCC1(c2noc(C3CC3)n2)CCN(C(=O)Nc2c(F)cccc2N2CCN(C(C)C)CC2)CC1 [Example 87, 4-(5-cyclopropyl-1,2,4-oxadiazol-3-yl)-4-ethyl-N-{2-fluoro-6-[4-(propan-2-yl)piperazin-1-yl]phenyl}piperidine-1-carboxamide] |
| 139 | COCC(C)N1CCN(c2ccccc2NC(=O)N2CCC(c3ccc(C)cc3)CC2)CC1 (centres unmarked) [Example 126, N-{2-[4-(1-methoxypropan-2-yl)piperazin-1-yl]phenyl}-4-(4-methylphenyl)piperidine-1-carboxamide] |
| 109 | CC(CF)N1CCC(c2cccc(Cl)c2NC(=O)N2CCC(C)(c3noc(C4CC4)n3)CC2)CC1 (centres unmarked) [Example 143, N-{2-chloro-6-[1-(1-fluoropropan-2-yl)piperidin-4-yl]phenyl}-4-(5-cyclopropyl-1,2,4-oxadiazol-3-yl)-4-methylpiperidine-1-carboxamide] |
| 135 | CC(C)N1CCC(c2cccc(F)c2NC(=O)N2CCC(C)(c3noc(C4CC4)n3)CC2)CC1 [Example 43, 4-(5-cyclopropyl-1,2,4-oxadiazol-3-yl)-N-{2-fluoro-6-[1-(propan-2-yl)piperidin-4-yl]phenyl}-4-methylpiperidine-1-carboxamide] |
| 138 | Cc1ccc(C2CCN(C(=O)Nc3c(OC(C)C)cccc3C3CCN(C(C)C)CC3)CC2)cc1 [Example 129, 4-(4-methylphenyl)-N-{2-[(propan-2-yl)oxy]-6-[1-(propan-2-yl)piperidin-4-yl]phenyl}piperidine-1-carboxamide] |
| 152 | CCC1(c2noc(C3CC3)n2)CCN(C(=O)Nc2c(Cl)cccc2N2CCN(C(C)C)CC2)CC1 [Example 89, N-{2-chloro-6-[4-(propan-2-yl)piperazin-1-yl]phenyl}-4-(5-cyclopropyl-1,2,4-oxadiazol-3-yl)-4-ethylpiperidine-1-carboxamide] |
| 75 | Cc1ccc(N2CCCN(C(=O)Nc3c(Cl)cccc3N3CCN(C(C)C)CC3)CC2)cc1 [Example 99, N-{2-chloro-6-[4-(propan-2-yl)piperazin-1-yl]phenyl}-4-(4-methylphenyl)-1,4-diazepane-1-carboxamide] |
| 161 | CC(C)N1CCN(c2cccc(Cl)c2NC(=O)N2CCC(C)(c3noc(C4(F)CC4)n3)CC2)CC1 [Example 109, N-{2-chloro-6-[4-(propan-2-yl)piperazin-1-yl]phenyl}-4-[5-(1-fluorocyclopropyl)-1,2,4-oxadiazol-3-yl]-4-methylpiperidine-1-carboxamide] |
| 44 | Cc1ccc(C2CCN(C(=O)Nc3c(F)cccc3C3CCN(C(C)C(F)F)CC3)CC2)cc1 (centres unmarked) [Example 138, N-{2-[1-(1,1-difluoropropan-2-yl)piperidin-4-yl]-6-fluorophenyl}-4-(4-methylphenyl)piperidine-1-carboxamide] |
| 128 | Cc1noc(C2(F)CCN(C(=O)Nc3ccccc3N3CCN(C(C)C)CC3)CC2)n1 [Example 164, 4-fluoro-4-(3-methl-1,2,4-oxadiazol-5-yl)-N-{2-[4-(propan-2-yl)piperazin-1-yl]phenyl}piperidine-1-carboxamide] |
| 104 | CC1(c2noc(C3CC3)n2)CCN(C(=O)Nc2c(Cl)cccc2C2CCN(C3COC3)CC2)CC1 [Example 146, N-{2-chloro-6-[1-(oxetan-3-yl)piperidin-4-yl]phenyl}-4-(5-cyclopropyl-1,2,4-oxadiazol-3-yl)-4-methylpiperidine-1-carboxamide] |

| SMILES | Agonist Activity (%) |
| --- | --- |
| Cc1ccc(C2(C)CCN(C(=O)Nc3c(Cl)cccc3C3=CCN(C(C)C)CC3)CC2)cc1 [Example 147, N-{2-chloro-6-[1-(propan-2-yl)-1,2,3,6-tetrahydropyridin-4-yl]phenyl}-4-methyl-4-(4-methylphenyl)piperidine-1-carboxamide] | 167 |
| Cc1ccc(C2CCN(C(=O)Nc3c(F)cccc3C3=CCN(C(CF)CF)CC3)CC2)cc1 [Example 136, N-{2-[1-(1,3-difluoropropan-2-yl)-1,2,3,6-tetrahydropyridin-4-yl]-6-fluorophenyl}-4-(4-methylphenyl)piperidine-1-carboxamide] | 105 |
